Data from PubChem BioAssay (NCI).
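Protocol summary: plate cells (96-well), add compound at 5 concentrations, incubate 48 h, interpolate endpoints linearly. TGI: total growth inhibition.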

What was measured:
Assay in all cases: inhibition of tumour cell growth, NCI panel, 48 h
RPMI-8226 leukemia = system: RPMI-8226 leukemia
SK-MEL-5 melanoma = system: SK-MEL-5 melanoma
SNB-75 CNS = system: SNB-75 CNS
786-0 renal = system: 786-0 renal
SW-620 colon = system: SW-620 colon
PC-3 prostate = system: PC-3 prostate
SF-295 CNS = system: SF-295 CNS
SK-MEL-2 melanoma = system: SK-MEL-2 melanoma
DU-145 prostate = system: DU-145 prostate
M14 melanoma = system: M14 melanoma

Structure (SMILES): OC1(c2ccc(Cl)cc2)c2c(ccc3c2OCO3)C2=NCCN21 (stereo not given)
- TGI (RPMI-8226 leukemia): 42.5 µM
- TGI (SK-MEL-5 melanoma): 32.1 µM
- TGI (SNB-75 CNS): 59 µM
- TGI (786-0 renal): > 100 µM
- TGI (SW-620 colon): > 100 µM
- TGI (PC-3 prostate): > 100 µM
- TGI (SF-295 CNS): > 100 µM
- TGI (SK-MEL-2 melanoma): 43.4 µM
- TGI (DU-145 prostate): > 100 µM
- TGI (M14 melanoma): 30.8 µM

Structure (SMILES): COc1cc(/C=C2/SC(c3ccccc3)N(c3cccc(Cl)c3)C2=O)cc(OC)c1OC (stereo not given)
- TGI (RPMI-8226 leukemia): 58.3 µM
- TGI (SK-MEL-5 melanoma): > 100 µM
- TGI (786-0 renal): 36.4 µM
- TGI (SW-620 colon): > 100 µM
- TGI (SF-295 CNS): > 100 µM
- TGI (SK-MEL-2 melanoma): > 100 µM
- TGI (DU-145 prostate): > 100 µM
- TGI (M14 melanoma): > 100 µM

Structure (SMILES): O=C1CS(=O)(=O)C(c2cccc(Oc3ccccc3)c2)N1c1cccc(Cl)c1 (stereo not given)
- TGI (SK-MEL-5 melanoma): 31.1 µM
- TGI (SNB-75 CNS): > 100 µM
- TGI (786-0 renal): 40.3 µM
- TGI (SW-620 colon): > 100 µM
- TGI (PC-3 prostate): > 100 µM
- TGI (SF-295 CNS): > 100 µM
- TGI (SK-MEL-2 melanoma): 33.2 µM
- TGI (DU-145 prostate): > 100 µM
- TGI (M14 melanoma): 92.2 µM

Structure (SMILES): O=c1cc(-c2ccc(O)cc2)n(C2CC2)c2ccccc12
- TGI (RPMI-8226 leukemia): 9.05 µM
- TGI (SK-MEL-5 melanoma): 18.5 µM
- TGI (786-0 renal): 17.1 µM
- TGI (SW-620 colon): 26.7 µM
- TGI (PC-3 prostate): 92.3 µM
- TGI (SF-295 CNS): 11.9 µM
- TGI (SK-MEL-2 melanoma): 8.2 µM
- TGI (DU-145 prostate): 21.5 µM
- TGI (M14 melanoma): 20.7 µM

Structure (SMILES): CCCCCCCCCCCCCCCc1ccc(OCC(O)CO)cc1 (stereo not given)
- TGI (RPMI-8226 leukemia): 53.2 µM
- TGI (SK-MEL-5 melanoma): > 100 µM
- TGI (SNB-75 CNS): 72 µM
- TGI (SW-620 colon): 49.1 µM
- TGI (SF-295 CNS): > 100 µM
- TGI (SK-MEL-2 melanoma): 42.7 µM
- TGI (M14 melanoma): 33.4 µM

Structure (SMILES): Nc1cc2c(nnn2C2OC(COCc3ccccc3)C(OCc3ccccc3)C2OCc2ccccc2)c(=O)[nH]1 (stereo not given)
- TGI (SK-MEL-5 melanoma): 19.9 µM
- TGI (SNB-75 CNS): > 100 µM
- TGI (786-0 renal): > 100 µM
- TGI (SW-620 colon): > 100 µM
- TGI (PC-3 prostate): > 100 µM
- TGI (SF-295 CNS): > 100 µM
- TGI (SK-MEL-2 melanoma): 28.3 µM
- TGI (DU-145 prostate): > 100 µM
- TGI (M14 melanoma): 64.4 µM

Structure (SMILES): N#Cc1c2c(c(Nc3cccc(C(F)(F)F)c3)n3c1nc1ccccc13)CCC2
- TGI (RPMI-8226 leukemia): > 100 µM
- TGI (SK-MEL-5 melanoma): > 100 µM
- TGI (SNB-75 CNS): > 100 µM
- TGI (786-0 renal): > 100 µM
- TGI (SW-620 colon): > 100 µM
- TGI (SF-295 CNS): > 100 µM
- TGI (DU-145 prostate): > 100 µM

Structure (SMILES): CS(=O)(=O)OC1CN2CCC1CC2 (stereo not given)
- TGI (RPMI-8226 leukemia): > 100 µM
- TGI (SK-MEL-5 melanoma): > 100 µM
- TGI (SNB-75 CNS): > 100 µM
- TGI (786-0 renal): > 100 µM
- TGI (SW-620 colon): > 100 µM
- TGI (PC-3 prostate): > 100 µM
- TGI (SF-295 CNS): > 100 µM
- TGI (SK-MEL-2 melanoma): > 100 µM
- TGI (DU-145 prostate): > 100 µM
- TGI (M14 melanoma): > 100 µM

Structure (SMILES): Cc1ccc(NP(=O)(Oc2ccccc2)N(CCCl)CCCl)cc1 (stereo not given)
- TGI (RPMI-8226 leukemia): > 100 µM
- TGI (SK-MEL-5 melanoma): > 100 µM
- TGI (SNB-75 CNS): > 100 µM
- TGI (SW-620 colon): > 100 µM
- TGI (SF-295 CNS): > 100 µM
- TGI (SK-MEL-2 melanoma): > 100 µM
- TGI (M14 melanoma): > 100 µM

Structure (SMILES): Cc1cc2c(cc1Cl)SC(c1ccccc1)C(=O)NS2(=O)=O (stereo not given)
- TGI (RPMI-8226 leukemia): > 100 µM
- TGI (SK-MEL-5 melanoma): 48.8 µM
- TGI (SNB-75 CNS): 87 µM
- TGI (786-0 renal): > 100 µM
- TGI (SW-620 colon): > 100 µM
- TGI (PC-3 prostate): 70.7 µM
- TGI (SF-295 CNS): 95.6 µM
- TGI (SK-MEL-2 melanoma): 32.9 µM
- TGI (DU-145 prostate): > 100 µM
- TGI (M14 melanoma): > 100 µM

Structure (SMILES): N#CC(c1ccnc(Cl)n1)c1nc2ccccc2s1 (stereo not given)
- TGI (RPMI-8226 leukemia): 25.9 µM
- TGI (SK-MEL-5 melanoma): 3.1 µM
- TGI (SNB-75 CNS): 13 µM
- TGI (786-0 renal): 16.1 µM
- TGI (SW-620 colon): > 70.7 µM
- TGI (PC-3 prostate): 26 µM
- TGI (SF-295 CNS): 31.5 µM
- TGI (SK-MEL-2 melanoma): 28.1 µM
- TGI (DU-145 prostate): > 100 µM
- TGI (M14 melanoma): 20.4 µM

Structure (SMILES): CC(=O)c1c(SCCN2CCCC2)n(-c2ccccc2)c(=S)n(-c2ccccc2)c1=O
- TGI (RPMI-8226 leukemia): 4.61 µM
- TGI (SK-MEL-5 melanoma): 20.8 µM
- TGI (SNB-75 CNS): 31.8 µM
- TGI (786-0 renal): 3.12 µM
- TGI (SW-620 colon): 6.76 µM
- TGI (PC-3 prostate): 10.8 µM
- TGI (SF-295 CNS): > 100 µM
- TGI (SK-MEL-2 melanoma): 50.8 µM
- TGI (DU-145 prostate): 8.85 µM
- TGI (M14 melanoma): 6.63 µM

Structure (SMILES): CCN(CC)CCCC(C)Nc1ccnc2cc3ccccc3cc12 (stereo not given)
- TGI (RPMI-8226 leukemia): > 100 µM
- TGI (SK-MEL-5 melanoma): 37.1 µM
- TGI (SNB-75 CNS): 20.1 µM
- TGI (786-0 renal): > 100 µM
- TGI (SW-620 colon): > 100 µM
- TGI (PC-3 prostate): > 100 µM
- TGI (SF-295 CNS): 24.6 µM
- TGI (SK-MEL-2 melanoma): 52.4 µM
- TGI (DU-145 prostate): > 100 µM
- TGI (M14 melanoma): > 100 µM

Structure (SMILES): Cc1cccc2cc3c(ccc4ccccc43)c[n+]12
- TGI (RPMI-8226 leukemia): > 100 µM
- TGI (SK-MEL-5 melanoma): 22.1 µM
- TGI (SNB-75 CNS): 21.8 µM
- TGI (786-0 renal): > 100 µM
- TGI (SW-620 colon): > 100 µM
- TGI (PC-3 prostate): > 100 µM
- TGI (SF-295 CNS): 41.5 µM
- TGI (SK-MEL-2 melanoma): 48.3 µM
- TGI (DU-145 prostate): > 100 µM

Structure (SMILES): Nc1ccc(-c2cssc2=S)cc1
- TGI (RPMI-8226 leukemia): 5.65 µM
- TGI (SK-MEL-5 melanoma): > 100 µM
- TGI (786-0 renal): > 100 µM
- TGI (SW-620 colon): > 100 µM
- TGI (PC-3 prostate): > 100 µM
- TGI (SF-295 CNS): > 100 µM
- TGI (SK-MEL-2 melanoma): 77 µM
- TGI (M14 melanoma): > 100 µM

Structure (SMILES): Cn1c(-c2cccs2)cc(-c2ccccc2)c1-c1cccs1
- TGI (RPMI-8226 leukemia): > 100 µM
- TGI (SK-MEL-5 melanoma): > 100 µM
- TGI (SNB-75 CNS): > 100 µM
- TGI (786-0 renal): > 100 µM
- TGI (SW-620 colon): > 100 µM
- TGI (PC-3 prostate): > 100 µM
- TGI (SF-295 CNS): > 100 µM
- TGI (SK-MEL-2 melanoma): > 100 µM
- TGI (DU-145 prostate): > 100 µM
- TGI (M14 melanoma): > 100 µM

Structure (SMILES): CC(=O)Nc1ccc(N=C2C(c3ccccc3)=C(SC3=C(c4ccccc4)C(=Nc4ccc(NC(C)=O)cc4)c4ccccc43)c3ccccc32)cc1
- TGI (RPMI-8226 leukemia): 81.1 µM
- TGI (SK-MEL-5 melanoma): 31.3 µM
- TGI (SNB-75 CNS): > 100 µM
- TGI (786-0 renal): > 100 µM
- TGI (SW-620 colon): > 100 µM
- TGI (PC-3 prostate): > 100 µM
- TGI (SF-295 CNS): > 100 µM
- TGI (SK-MEL-2 melanoma): > 100 µM
- TGI (DU-145 prostate): > 100 µM
- TGI (M14 melanoma): > 100 µM

Structure (SMILES): CN(C)c1nc(N(C)C)nc(N(C)CN(C)c2ccc(Cl)cc2)n1
- TGI (SK-MEL-5 melanoma): > 100 µM
- TGI (SNB-75 CNS): > 100 µM
- TGI (SW-620 colon): > 100 µM
- TGI (SF-295 CNS): > 100 µM
- TGI (SK-MEL-2 melanoma): > 100 µM

Structure (SMILES): CO/C=C(/C(=O)OC)c1ccccc1[C@@H]1CC1c1cccc(F)c1 (stereo not given in full)
- TGI (RPMI-8226 leukemia): 48.3 µM
- TGI (SK-MEL-5 melanoma): 24.8 µM
- TGI (786-0 renal): > 100 µM
- TGI (PC-3 prostate): > 100 µM
- TGI (SF-295 CNS): > 100 µM
- TGI (SK-MEL-2 melanoma): 37.4 µM
- TGI (DU-145 prostate): > 100 µM
- TGI (M14 melanoma): 81.6 µM

Structure (SMILES): O=C(N/N=C(/COc1ccc(Cl)cc1)N=Cc1cccnc1)c1ccncc1
- TGI (RPMI-8226 leukemia): > 100 µM
- TGI (SNB-75 CNS): > 100 µM
- TGI (786-0 renal): > 100 µM
- TGI (SW-620 colon): > 100 µM
- TGI (PC-3 prostate): > 100 µM
- TGI (SF-295 CNS): > 100 µM
- TGI (SK-MEL-2 melanoma): > 100 µM
- TGI (DU-145 prostate): > 100 µM
- TGI (M14 melanoma): > 100 µM

Structure (SMILES): CCN1C=C/C(=C\C=C/c2cc[n+](CC)c3ccccc23)c2ccccc21
- TGI (RPMI-8226 leukemia): 12 µM
- TGI (SK-MEL-5 melanoma): 21.2 µM
- TGI (SNB-75 CNS): 7.57 µM
- TGI (786-0 renal): 18.2 µM
- TGI (SW-620 colon): 16.2 µM
- TGI (PC-3 prostate): 17.3 µM
- TGI (SF-295 CNS): 12.5 µM
- TGI (SK-MEL-2 melanoma): 21.2 µM
- TGI (DU-145 prostate): 26.3 µM
- TGI (M14 melanoma): 16.9 µM
